Results: patent US12133855B2, “Lipid-like nanocomplexes and uses thereof” (Trustees of Tufts College, priority 2018, dated 2024)
Read-outs that look alike come from different tables or passages of the source.

Assays:
Format in all cases: cell-based
HeLa cells = assay: Internalization of Nile red loaded nanoparticles (NR+ cells); settings: 8 h of exposure
Method: (§1) The internalization kinetics and efficiencies of OCholB LNPs were then studied using NR loaded LNPs and HeLa cells. […] Next, all of the NR delivery efficiencies of eight OCholB LNPs were determined after 8 h of exposure. […] Representative fluorescent images of NR/LNPs (NR/75-OCholB, NR/76-OCholB and NR/77-OCholB) treated HeLa cells are shown in FIG. 12D, from which it is easily observed that NR was delivered into the cells and mainly distributed in cytoplasm, by OCholB LNPs. Next, the internalization of negatively charged hydrophilic fluorescent dye, calcein, was studied. […] Next, the use of OCholB LNPs for the intracellular delivery of macromolecular cargo was explored, using fluorescent recombinant (−30)GFP-Cre protein and HeLa-DsRed cells as the model system. […] Delivery efficiency was tested at a range of (−30)GFP-Cre protein concentrations (25, 50 and 100 nM), with a consistent lipid/protein ratio (i.e., delivery with the final lipid concentration of 1.7, 3.3, and 6.6 μg mL^−1 respectively). 33.2%, 43.8% and 74% of GFP positive (GFP^+) cells were recorded for (−30)GFP-Cre/Lpf2k treated cells with the concentration of (−30)GFP-Cre 25 nM, 50 nM and 100 nM, respectively. […] The typical flow cytometry profiles of naked (−30)GFP-Cre protein and (−30)GFP-Cre loaded nanoparticles ((−30)GFP-Cre/75-OCholB, (−30)GFP-Cre/76-OCholB, (−30)GFP-Cre/77-OCholB and (−30)GFP-Cre/Lpf2k) treated HeLa-DsRed cells were shown in and FIG. 12H ([lipidoid]=6.6 μg mL^−1 and [(−30)GFP-Cre]=100 nM), which is consistent with the statistical results shown in FIG. 12G. Furthermore, the representative fluorescent images from the protein and protein/nanoparticle treated HeLa-DsRed cells are also shown in FIG. 12I.

HeLa-DsRed cells [1] = settings: for cell morphology (bright field images) vs untreated cells / mean fluorescence intensity of treated cells: [lipidoid]=6.6 μg mL^−1, [(−30)GFP-Cre]=100 nM; for green fluorescence signals (fluorescent images): protein/nanoparticle treated HeLa-DsRed cells
Method: as §1

HeLa-DsRed cells [2] = assay: Genome editing efficiency of (−30)GFP-Cre/OCholB LNPs (DsRed+ cells); settings: for DsRed^+ cells: 8 h exposure, 24 h incubation
Source text: In this context, the internalization mechanism of the (−30)GFP-Cre/LNPs complexes was studied at first, by introducing different endocytosis inhibitors, i.e., sucrose (clathrin-mediated endocytosis inhibitor), methyl-β-cyclodextrin (M-β-CD, cholesterol-depleting agent), dynasore (dynamin II inhibitor) and nystatin (caveolin-mediated endocytosis inhibitor), following our previously reported procedures. […] Comparing to other combinatorial library studies, it is clear that even loaded with same cargoes and tested against same cell line, different lipidoids with different chemical structures could be internalized through very distinct pathways. Next, the genome-editing efficiencies of (−30)GFP-Cre/LNPs were determined by flow cytometry after 24 h of incubation (with 8 h of (−30)GFP-Cre/LNPs complex exposure). Three different concentrations of protein/lipidoid complexes (25 nM/1.7 μg mL^−1, 50 nM/3.4 μg mL^−1, and 100 nM/6.6 μg mL^−1) were tested for each lipidoid nanoparticle. […] For example, the DsRed^+ cells were recorded as 10.5%/24.9%/88.9%, 13.5%/55.4%/88.8%, and 27.7%/47.8%/94.7% for (−30)GFP-Cre loaded 75-OCholB, 76-OCholB and 77-OCholB, respectively, at the protein concentration of 25, 50 and 100 nM. […] Then, the cytotoxicity profiles of (−30)GFP-Cre/LNPs, (−30)GFP-Cre/Lpf2k and naked (−30)GFP-Cre at different concentrations against HeLa-DsRed cells (8 h of exposure; (−30)GFP-Cre/LNPs=25 nM/1.7 μg mL^−1, 50 nM/3.4 μg mL^−1, and 100 nM/6.6 μg mL^−1) are measured using MTT assay after 24 h of incubation. […] For (−30)GFP-Cre/75-OCholB treated cells, the viabilities were determined to be 95.5%, 91.8% and 83.1%, at the protein concentration of 25, 50 and 100 nM, respectively; the numbers for (−30)GFP-Cre/76-OCholB and (−30)GFP-Cre/77-OCholB are 97.8%/98.2%/97.2 and 100.9%/96.6%/98.6%. […] Meanwhile, the morphology changes of HeLa-DsRed cell treated with different nanoparticle formulations were studied and the results are shown in FIG. 15E. […] Samples found in upper left quadrant are non-toxic and inefficient for delivery; samples in lower left quadrant are toxic and inefficient; samples in lower right quadrant are efficient but toxic; samples in upper right quadrant are non-toxic and efficient, which would be top candidates for further study. It is clear that Lpf2k (shown in dotted purple circle) at high concentration is relatively efficient for genome editing, while also toxic to the target cells. On the other hand, most of the (−30)GFP-Cre loaded OCholB LNPs are almost non-toxic when compared to (−30)GFP-Cre/Lpf2k, similar to naked (−30)GFP-Cre protein. 87-OCholB, 90-OCholB and 304-OCholB (shown in dotted dark blue circle) are less efficient for genome-editing; while high genome editing efficacy and excellent tolerability were achieved by using 75-OCholB, 76-OCholB and 77-OCholB (shown in dotted green circle).

[3] = (−30)GFP-Cre 50 nM, lipid 3.3 μg mL^−1
[4] = (−30)GFP-Cre 100 nM, lipid 6.6 μg mL^−1
[5] = protein/lipidoid 25 nM/1.7 μg mL^−1
[6] = protein/lipidoid 50 nM/3.4 μg mL^−1
[7] = (−30)GFP-Cre 25 nM, lipid 1.7 μg mL^−1
[8] = protein/lipidoid 100 nM/6.6 μg mL^−1

SMILES: CCN(CC)CCN(CCC(=O)OCCSSCCNC(=O)OC1CCC2(C)C(=CCC3C2CCC2(C)C(C(C)CCCC(C)C)CCC32)C1)CCC(=O)OCCSSCCNC(=O)OC1CCC2(C)C(=CCC3C2CCC2(C)C(C(C)CCCC(C)C)CCC32)C1 (stereo not drawn) [Lipidoid 75-OCholB]
- NR^+ cells (HeLa cells): 85.2%
- GFP positive (GFP^+) cells (HeLa-DsRed cells [1]; [3]): 42.3%
- GFP positive (GFP^+) cells (HeLa-DsRed cells [1]; [4]): 93.1%
- cell morphology (bright field images) vs untreated cells (HeLa-DsRed cells [1]): no evident morphological change
- mean fluorescence intensity of treated cells (HeLa-DsRed cells [1]): much more efficient than others
- green fluorescence signals (fluorescent images) (HeLa-DsRed cells [1]): Strong green fluorescence signals
- DsRed^+ cells (HeLa-DsRed cells [2]; [5]): 10.5%
- DsRed^+ cells (HeLa-DsRed cells [2]; [6]): 24.9%

SMILES: CC(C)CCCC(C)C1CCC2C3CC=C4CC(OC(=O)NCCSSCCOC(=O)CCN(CCC(=O)OCCSSCCNC(=O)OC5CCC6(C)C(=CCC7C6CCC6(C)C(C(C)CCCC(C)C)CCC76)C5)CCN5CCCC5)CCC4(C)C3CCC12C (stereo not drawn) [Lipidoid 76-OCholB]
- NR^+ cells (HeLa cells): 65.0%
- GFP positive (GFP^+) cells (HeLa-DsRed cells [1]; [7]): 66.4%
- GFP positive (GFP^+) cells (HeLa-DsRed cells [1]; [3]): 96.3%
- GFP positive (GFP^+) cells (HeLa-DsRed cells [1]; [4]): 98.7%
- cell morphology (bright field images) vs untreated cells (HeLa-DsRed cells [1]): no evident morphological change
- mean fluorescence intensity of treated cells (HeLa-DsRed cells [1]): much more efficient than others
- green fluorescence signals (fluorescent images) (HeLa-DsRed cells [1]): Strong green fluorescence signals
- DsRed^+ cells (HeLa-DsRed cells [2]; [5]): 13.5%
- DsRed^+ cells (HeLa-DsRed cells [2]; [6]): 55.4%

SMILES: CC(C)CCCC(C)C1CCC2C3CC=C4CC(OC(=O)NCCSSCCOC(=O)CCN(CCC(=O)OCCSSCCNC(=O)OC5CCC6(C)C(=CCC7C6CCC6(C)C(C(C)CCCC(C)C)CCC76)C5)CCC5CCCN5C)CCC4(C)C3CCC12C (stereo not drawn) [Lipidoid 77-OCholB]
- NR^+ cells (HeLa cells): 90.3%
- GFP positive (GFP^+) cells (HeLa-DsRed cells [1]; [7]): 66.4%
- GFP positive (GFP^+) cells (HeLa-DsRed cells [1]; [3]): 90.7%
- GFP positive (GFP^+) cells (HeLa-DsRed cells [1]; [4]): 97.9%
- cell morphology (bright field images) vs untreated cells (HeLa-DsRed cells [1]): no evident morphological change
- mean fluorescence intensity of treated cells (HeLa-DsRed cells [1]): much more efficient than others
- green fluorescence signals (fluorescent images) (HeLa-DsRed cells [1]): Strong green fluorescence signals
- DsRed^+ cells (HeLa-DsRed cells [2]; [5]): 27.7%
- DsRed^+ cells (HeLa-DsRed cells [2]; [6]): 47.8%

SMILES: CC(C)CCCC(C)C1CCC2C3CC=C4CC(OC(=O)NCCSSCCOC(=O)CCN(CCC(=O)OCCSSCCNC(=O)OC5CCC6(C)C(=CCC7C6CCC6(C)C(C(C)CCCC(C)C)CCC76)C5)CCN(C)C)CCC4(C)C3CCC12C (stereo not drawn) [Lipidoid 78-OCholB]
- NR^+ cells (HeLa cells): 92.3%
- GFP positive (GFP^+) cells (HeLa-DsRed cells [1]; [3]): 46.1%
- GFP positive (GFP^+) cells (HeLa-DsRed cells [1]; [4]): 90.1%
- DsRed^+ cells (HeLa-DsRed cells [2]; [8]): out-performed Lpf2k

SMILES: CC(C)CCCC(C)C1CCC2C3CC=C4CC(OC(=O)NCCSSCCOC(=O)CCN(CCCN(C)C)CCC(=O)OCCSSCCNC(=O)OC5CCC6(C)C(=CCC7C6CCC6(C)C(C(C)CCCC(C)C)CCC76)C5)CCC4(C)C3CCC12C (stereo not drawn) [Lipidoid 80-OCholB]
- NR^+ cells (HeLa cells): 71.4%
- GFP positive (GFP^+) cells (HeLa-DsRed cells [1]; [7]): 54.7%
- GFP positive (GFP^+) cells (HeLa-DsRed cells [1]; [3]): 88.9%
- GFP positive (GFP^+) cells (HeLa-DsRed cells [1]; [4]): 97.0%
- mean fluorescence intensity of treated cells (HeLa-DsRed cells [1]): much more efficient than others
- DsRed^+ cells (HeLa-DsRed cells [2]; [8]): out-performed Lpf2k

SMILES: CCN(CC)CCCN(CCC(=O)OCCSSCCNC(=O)OC1CCC2(C)C(=CCC3C2CCC2(C)C(C(C)CCCC(C)C)CCC32)C1)CCC(=O)OCCSSCCNC(=O)OC1CCC2(C)C(=CCC3C2CCC2(C)C(C(C)CCCC(C)C)CCC32)C1 (stereo not drawn) [Lipidoid 81-OCholB]
- NR^+ cells (HeLa cells): 27.0%
- GFP positive (GFP^+) cells (HeLa-DsRed cells [1]; [7]): 40.9%
- GFP positive (GFP^+) cells (HeLa-DsRed cells [1]; [3]): 87.4%
- GFP positive (GFP^+) cells (HeLa-DsRed cells [1]; [4]): 91.5%
- mean fluorescence intensity of treated cells (HeLa-DsRed cells [1]): much more efficient than others
- DsRed^+ cells (HeLa-DsRed cells [2]; [8]): out-performed Lpf2k

SMILES: CC(C)CCCC(C)C1CCC2C3CC=C4CC(OC(=O)NCCSSCCOC(=O)CCN(C)CCN(CCN(C)CCC(=O)OCCSSCCNC(=O)OC5CCC6(C)C(=CCC7C6CCC6(C)C(C(C)CCCC(C)C)CCC76)C5)CCN(C)CCC(=O)OCCSSCCNC(=O)OC5CCC6(C)C(=CCC7C6CCC6(C)C(C(C)CCCC(C)C)CCC76)C5)CCC4(C)C3CCC12C (stereo not drawn) [Lipidoid 304-OCholB]
- NR^+ cells (HeLa cells): 22.8%
- GFP positive (GFP^+) cells (HeLa-DsRed cells [1]; [4]): 48.8%
- genome editing efficacy (DsRed^+ cells), overall (HeLa-DsRed cells [2]; (−30)GFP-Cre 25, 50 and 100 nM): less efficient at delivery
